Converted amounts (≈) assume the structure as drawn. Peptide text beside a SMILES is read from it.
Assays:
Candida albicans SC5314 [1] = details: SC5314, 24 h
tested bacteria = type: cell-based
[2] = tested on: Schizosaccharomyces pombe 972h-
[3] = tested on: Aspergillus nidulans FGSC A4; details: 24 h
[4] = tested on: Saccharomyces cerevisiae S288C; details: 24 h
[5] = tested on: Histoplasma capsulatum G217B; details: 96 h
[6] = tested on: Schizosaccharomyces pombe 972h-; experiment: microbe, parasite or virus in culture; details: read-out: MIC Sp
[7] = tested on: Histoplasma capsulatum G217B; experiment: microbe, parasite or virus in culture; details: 96 h, read-out: MIC Hc
[8] = tested on: Aspergillus nidulans FGSC A4; experiment: microbe, parasite or virus in culture; details: FGSCA4, 24 h, read-out: MIC An
Candida albicans SC5314 [9] = experiment: microbe, parasite or virus in culture; details: SC5314, 24 h, read-out: MIC Ca
[10] = tested on: Saccharomyces cerevisiae S288C; experiment: microbe, parasite or virus in culture; details: 24 h, read-out: MIC Sc
human erythrocytes [11] = experiment: Hemolytic activity; type: cell-based; details: 1% human erythrocytes in PBS, 37 °C, 1 h, hemoglobin at 416 nm, 100% = 1% TritonX-100, biological triplicate
Experimental: Type O+ fresh human blood was purchased from Tennessee Blood Services Corp. (Memphis, TN, USA) in 10% citrate phosphate dextrose 10X phosphate saline solution (PBS) and EDTA (K2). Upon receiving the blood, it was washed using three volumes of 1X PBS + 5 mM glucose. The suspension was centrifuged at 1000× g for 10 min at 4 °C and the supernatant removed. The process was repeated two more times. The sedimented cells were resuspended in the same volume of 1X PBS + 5 mM glucose and stored at 4 °C until use.
[…] The cell suspensions were incubated at 37 °C for 1 h. The unlysed erythrocytes were removed by centrifugation (16,000× g) and the released hemoglobin was determined spectrophotometrically at 416 nm using a NanoDrop spectrophotometer (Thermo Fisher Scientific, Waltham, MA, USA). The control for no release of hemoglobin was a sample of 1% erythrocytes incubated in PBS without peptide. The control for 100% release of hemoglobin was a sample of 1% erythrocyte incubated in PBS with 1% TritonX-100. Each assay was performed in biological triplicate.

P. aeruginosa = experiment: Antibacterial MIC, microbroth dilution; type: cell-based, Pseudomonas aeruginosa ATCC 27853; details: P. aeruginosa ATCC 27853; CLSI microbroth dilution, cation-adjusted Mueller-Hinton broth, 37 °C, OD600 every 15 min for 20 h, biological triplicate
Experimental: (§1) The antibacterial activity of the natural peptides and analogs was determined using the standard microbroth dilution method for determining minimal inhibitory concentration (MIC). […] The analog EMP-ER-D2K2 is the only analog that has some, but low, activity against B. subtilis with an MIC of 200 μg/mL.
(§2) Escherichia coli ATCC 25922 was obtained from ATCC and Pseudomonas aeruginosa ATCC 27853 was obtained from Carolina Biologicals. Staphylococcus aureus Newman was the S. aureus strain and the B. subtilis strain was JH642 (trpC2, pheA1).
(§3) Bacteria were grown on LB-agar plates (Fisher, Waltham, MA, USA) overnight at 37 °C, then stored at 4 °C until use. Four colonies were inoculated from the plate into 5 mL cation-adjusted Mueller-Hinton medium (Sigma) and grown to approximately OD600 = 1–2 at 37 °C in a shaking incubator at 250 rpm in preparation for antimicrobial activity testing. MICs were determined in cation-adjusted Mueller-Hinton broth using the microbroth dilution method from the Clinical and Laboratory Standards Institute. Growth was monitored by determining the optical density at 600 nm using a BioTek Synergy HTX multi-mode 96-well plate reader set to incubate at 37 °C and record every 15 min for 20 h. Each assay was performed in biological triplicate.

S. aureus = experiment: Antibacterial MIC, microbroth dilution; type: cell-based; details: Staphylococcus aureus Newman; CLSI microbroth dilution, cation-adjusted Mueller-Hinton broth, 37 °C, OD600 every 15 min for 20 h, biological triplicate
Experimental: as §1, §2, §3

E. coli = experiment: Antibacterial MIC, microbroth dilution; type: cell-based, Escherichia coli ATCC 25922; details: E. coli ATCC 25922; CLSI microbroth dilution, cation-adjusted Mueller-Hinton broth, 37 °C, OD600 every 15 min for 20 h, biological triplicate
Experimental: as §1, §2, §3

B. subtilis = experiment: Antibacterial MIC, microbroth dilution; type: cell-based, Bacillus subtilis JH642; details: B. subtilis JH642; CLSI microbroth dilution, cation-adjusted Mueller-Hinton broth, 37 °C, OD600 every 15 min for 20 h, biological triplicate
Experimental: as §1, §2, §3

human erythrocytes [12] = details: cited from earlier work
Experimental: For EMP-ER, Konno reports 100% hemolysis for a concentration of 0.5 μg/mL and about 50% for 0.18 μg/mL [33].

Row | SMILES | MIC Ca (Candida albicans SC5314 [1]) [µg/mL] | antibacterial activity (tested bacteria) | MIC Sp [2] [µg/mL] | MIC An [3] [µg/mL] | MIC Sc [4] [µg/mL] | MIC Hc [5] [µg/mL] | MIC [6] [µg/mL] | MIC [7] [µg/mL] | MIC [8] [µg/mL] | MIC (Candida albicans SC5314 [9]) [µg/mL] | MIC [10] [µg/mL] | hemolysis (human erythrocytes [11]) [%] | MIC P. aeruginosa (P. aeruginosa) [µg/mL] | MIC S. aureus (S. aureus) [µg/mL] | MIC E. coli (E. coli) [µg/mL] | MIC B. subtilis (B. subtilis) [µg/mL] | hemolysis (release) (human erythrocytes [12]; at concentrations of 0.5 μg/m) [%] | hemolysis potency relative to mastoparan (human erythrocytes [12])
1 | CC[C@H](C)[C@H](N)C(=O)N[C@@H](CC(N)=O)C(=O)N[C@@H](CCCCN)C(=O)N[C@@H](CC(C)C)C(=O)N[C@H](C(=O)N[C@H](C(=O)N[C@@H](CCCCN)C(=O)N[C@H](C(=O)NCC(=O)N[C@@H](CCCCN)C(=O)N[C@H](C(=O)N[C@H](C(=O)N[C@@H](CO)C(=O)N[C@@H](CC(C)C)C(N)=O)C(C)C)[C@@H](C)CC)C(C)C)[C@@H](C)CC)C(C)C [EMP-AF-KV] (H-INKLVIKVGKIVSL-NH2) | >256 | no antibacterial activity | >256 | >256 | >256 | >256 | – | – | – | – | – | – | – | – | – | – | – | –
2 | C[C@@H]1[C@H](O)[C@@H](C)/C=C/C=C/C=C/C=C/C=C/C=C/C=C/[C@H](O[C@@H]2O[C@H](C)[C@@H](O)[C@H](N)[C@@H]2O)C[C@@H]2O[C@](O)(C[C@@H](O)C[C@@H](O)[C@H](O)CC[C@@H](O)C[C@@H](O)CC(=O)O[C@H]1C)C[C@H](O)[C@H]2C(=O)O [Amphotericin B] | – | – | – | – | – | – | 0.25 (≈ 0.271 µM) | 0.5 (≈ 0.541 µM) | > 16 | 0.5 (≈ 0.541 µM) | 1 (≈ 1.08 µM) | – | – | – | – | – | – | –
3 | CC[C@H](C)[C@H](N)C(=O)N[C@@H](CC(N)=O)C(=O)N[C@@H](CC(C)C)C(=O)N[C@@H](CC(C)C)C(=O)N[C@@H](CCCCN)C(=O)N[C@H](C(=O)N[C@@H](C)C(=O)N[C@@H](CCCCN)C(=O)NCC(=O)N[C@H](C(=O)N[C@H](C(=O)N[C@@H](CCCCN)C(=O)N[C@@H](CO)C(=O)N[C@@H](CC(C)C)C(N)=O)[C@@H](C)CC)[C@@H](C)CC)[C@@H](C)CC [EMP-AF-OR] (H-INLLKIAKGIIKSL-NH2) | >256 | – | >256 | >256 | >256 | 128 (≈ 84 µM) | – | – | – | – | – | 100 | 200 | 25 | 25 | 10 | 75 | one-third

Reference: publication PMC8532962 (Antibiotics, 2021)
